Test results published in patent US8466290B2, “STAT3 inhibitor containing quinolinecarboxamide derivative as active ingredient” (Pharma IP General Incorporated Association, priority 2008, dated 2013).

Tests used:
[1] = system: STAT3; assay: STAT3 transcription inhibition test (reporter gene method, oncostatin M stimulation); assay type: cell-based; settings: compound at 100 μM, STAT3 reporter HeLa stable cell line, oncostatin M 10 ng/mL, 4 hours; for inhibition at 100 µM: Homo sapiens, read-out: STAT3 transcription inhibitory activity (%)
Procedure: The inhibition of STAT3 transcription was evaluated by using STAT3 reporter HeLa stable cell line (Panomics Inc., catalog No. RC0003), a cell line for the reporter gene method, and performing the following method according to the appendix included therein.
STAT3 reporter HeLa stable cell line subcultured and maintained in a Dulbecco's modified Eagle's medium (DMEM) containing 10% fetal bovine serum, 100 units/mL penicillin, and 100 μg/mL streptomycin was inoculated at a concentration of 40000 cells/well to a 96-well plate (white) and attached to the plate by overnight incubation at 37° C. under 5% CO2. After addition of each evaluation compound adjusted to various concentrations (adjusted with a DMSO solution), the cells were precultured for 1 hour. Then, oncostatin M for activating STAT3 was added at a final concentration 10 ng/mL, and the cells were further cultured at 37° C. under 5% CO2 for 4 hours. Luciferase activity derived from the cells was determined using Steady-Glo Luciferase Assay System (Promega Corp.), and STAT3 transcriptional activity scores were calculated according to the following formula: STAT3 transcriptional activity score (%)=100×(Lchem−L0)/(LDMSO−L0) Lo: luminescence intensity obtained without stimulation with oncostatin M Lchem: luminescence intensity obtained by the addition of a test sample LDMSO: luminescence intensity obtained by the addition of only a solvent for dissolving a test sample

[2] = system: MDA-MB-435S; assay: MDA-MB-435S cell growth inhibitory activity; assay type: cell-based; settings: Homo sapiens, compound at 20 μM, 72 hours, read-out: Cell growth inhibitory activity (%)
Procedure: […] Each well was washed three times with a medium. Then, after addition of 100 μL/well of a medium and 20 μL/well of CellTiter 96 AQueous One Solution Reagent (Promega Corp.), the cells were incubated at 37° C. for 2 hours in the presence of 5% CO2.

Row | Molecule | inhibition at 100 µM [1] | inhibition at 20 µM [2] | STAT3 transcription inhibitory activity (%) [1]
1 | O=C(Nc1nnc(-c2ccoc2)o1)c1cc(-c2ccccc2)nc2ccccc12 [Ia-2, N-[5-(3-furyl)-1,3,4-oxadiazol-2-yl]-2-phenyl-4-quinolinecarboxamide] | > 100% |  | 
2 | O=C(Nc1nnc(-c2ccccc2)o1)c1cc(-c2ccccc2)nc2ccccc12 [Ia-3, 2-phenyl-N-(5-phenyl-1,3,4-oxadiazol-2-yl)-4-quinolinecarboxamide] | > 100% | 53% | 
3 | O=C(Nc1nnc(-c2ccc(Cl)cc2)o1)c1cc(-c2ccccc2)nc2ccccc12 [Ia-5, N-[5-(4-chlorophenyl)-1,3,4-oxadiazol-2-yl]-2-phenyl-4-quinolinecarboxamide] | > 100% |  | 
4 | O=C(Nc1nnc(-c2ccc([N+](=O)[O-])cc2)o1)c1cc(-c2ccccc2)nc2ccccc12 [Ia-7, N-[5-(4-nitrophenyl)-1,3,4-oxadiazol-2-yl]-2-phenyl-4-quinolinecarboxamide] | 65% |  | 
5 | O=C(Nc1nnc(-c2cccnc2)o1)c1cc(-c2ccccc2)nc2ccccc12 [Ia-9, 2-phenyl-N-[5-(3-pyridyl)-1,3,4-oxadiazol-2-yl]-4-quinolinecarboxamide] | 65% |  | 
6 | O=C(Nc1nnc(-c2ccco2)o1)c1cc(N2CCCCC2)nc2ccccc12 [Ia-14, N-[5-(2-furyl)-1,3,4-oxadiazol-2-yl]-2-piperidino-4-quinolinecarboxamide] | 63% |  | 
7 | O=C(Nc1nnc(-c2ccco2)o1)c1cc(-c2cccc([N+](=O)[O-])c2)nc2ccccc12 [Ia-16, N-[5-(2-furyl)-1,3,4-oxadiazol-2-yl]-2-(3-nitrophenyl)-4-quinolinecarboxamide] | 62% |  | 
8 | O=C(Nc1nnc(-c2ccco2)o1)c1cc(-c2ccco2)nc2ccccc12 [Ia-18, 2-(2-furyl)-N-[5-(2-furyl)-1,3,4-oxadiazol-2-yl]-4-quinolinecarboxamide] | 68% |  | 
9 | COc1ccc2nc(-c3ccccc3)cc(C(=O)Nc3nnc(-c4ccco4)o3)c2c1 [Ia-23, N-[5-(2-furyl)-1,3,4-oxadiazol-2-yl]-6-methoxy-2-phenyl-4-quinolinecarboxamide] | 100% | 50% | 
10 | Cc1c(Cl)ccc2c(C(=O)Nc3nnc(-c4ccco4)o3)cc(-c3ccccc3)nc12 [Ia-26, 7-chloro-N-[5-(2-furyl)-1,3,4-oxadiazol-2-yl]-8-methyl-2-phenyl-4-quinolinecarboxamide] | 73% |  | 
11 | Cc1ccc(-c2cc(C(=O)Nc3nnc(-c4ccco4)o3)c3cccc(C)c3n2)cc1 [Ia-27, N-[5-(2-furyl)-1,3,4-oxadiazol-2-yl]-8-methyl-2-(4-tolyl)-4-quinolinecarboxamide] | 71% | 99% | 
12 | Cc1c(Cl)ccc2c(C(=O)Nc3nnc(-c4ccco4)o3)cc(-c3ccco3)nc12 [Ia-28, 7-chloro-2-(2-furyl)-N-[5-(2-furyl)-1,3,4-oxadiazol-2-yl]-8-methyl-4-quinolinecarboxamide] | > 100% |  | 
13 | Cc1ccc2nc(-c3cccs3)cc(C(=O)Nc3nnc(-c4ccco4)o3)c2c1 [Ia-29, N-[5-(2-furyl)-1,3,4-oxadiazol-2-yl]-6-methyl-2-(2-thienyl)-4-quinolinecarboxamide] | 65% | 98% | 
14 | O=C(Nc1nnc(-c2ccco2)o1)c1cc(-c2cccs2)nc2ccc(Cl)cc12 [Ia-30, 6-chloro-N-[5-(2-furyl)-1,3,4-oxadiazol-2-yl]-2-(2-thienyl)-4-quinolinecarboxamide] | 62% | > 100% | 
15 | O=C(Nc1nnc(-c2ccco2)o1)c1cc(-c2cccs2)nc2c(Cl)cccc12 [Ia-32, 8-chloro-N-[5-(2-furyl)-1,3,4-oxadiazol-2-yl]-2-(2-thienyl)-4-quinolinecarboxamide] | 90% |  | 
16 | O=C(Nc1nnc(-c2ccco2)o1)c1cc(-c2ccccc2Cl)nc2ccccc12 [Ia-37, 2-(2-chlorophenyl)-N-[5-(2-furyl)-1,3,4-oxadiazol-2-yl]-4-quinolinecarboxamide] | 100% |  | 
17 | O=C(Nc1nnc(-c2ccco2)o1)c1cc(-c2ccccc2O)nc2ccccc12 [Ia-38, N-[5-(2-furyl)-1,3,4-oxadiazol-2-yl]-2-(2-hydroxyphenyl)-4-quinolinecarboxamide] | > 100% | 50% | 
18 | Nc1ccccc1-c1cc(C(=O)Nc2nnc(-c3ccco3)o2)c2ccccc2n1 [Ia-40, 2-(2-aminophenyl)-N-[5-(2-furyl)-1,3,4-oxadiazol-2-yl]-4-quinolinecarboxamide] | 62% |  | 

Row | Molecule | inhibition at 100 µM [1] | inhibition at 20 µM [2] | STAT3 transcription inhibitory activity (%) [1]
19 | O=C(Nc1nnc(-c2ccco2)o1)c1cc(-c2cccc(Cl)c2)nc2ccccc12 [Ia-41, 2-(3-chlorophenyl)-N-[5-(2-furyl)-1,3,4-oxadiazol-2-yl]-4-quinolinecarboxamide] | > 100% | 55% | 
20 | O=C(Nc1nnc(-c2ccco2)o1)c1cc(-c2ccc(O)cc2)nc2ccccc12 [Ia-50, N-[5-(2-furyl)-1,3,4-oxadiazol-2-yl]-2-(4-hydroxyphenyl)-4-quinolinecarboxamide] | 73% |  | 
21 | Cc1ccc(-c2cc(C(=O)Nc3nnc(-c4ccco4)o3)c3ccccc3n2)c(C)c1 [Ia-56, N-[5-(2-furyl)-1,3,4-oxadiazol-2-yl]-2-(2,4-dimethylphenyl)-4-quinolinecarboxamide] | 99% |  | 
22 | COc1ccc2cc(-c3cc(C(=O)Nc4nnc(-c5ccco5)o4)c4ccccc4n3)ccc2c1 [Ia-61, N-[5-(2-furyl)-1,3,4-oxadiazol-2-yl]-2-(6-methoxy-2-naphthyl)-quinolinecarboxamide] |  |  | >100%
23 | O=C(Nc1nnc(-c2ccco2)o1)c1cc(-c2ccco2)nc2c(Cl)cccc12 [Ia-79, 8-chloro-2-(2-furyl)-N-[5-(2-furyl)-1,3,4-oxadiazol-2-yl]-4-quinolinecarboxamide] | > 100% |  | 
24 | O=C(Nc1nnc(-c2ccc([N+](=O)[O-])o2)o1)c1cc(-c2ccccc2)nc2ccccc12 [Ia-84, N-[5-(5-nitro-2-furyl)-1,3,4-oxadiazol-2-yl]-2-phenyl-4-quinolinecarboxamide] | 56% |  | 
25 | CN(C)CCOc1ccc2nc(-c3ccccc3)cc(C(=O)Nc3nnc(-c4ccco4)o3)c2c1 [Ia-88, N-[5-(2-furyl)-1,3,4-oxadiazol-2-yl]-6-[2-(dimethylamino)ethoxy]-2-phenyl-4-quinolinecarboxamide] | 76% |  | 
26 | COCCOc1ccc2nc(-c3ccccc3)cc(C(=O)Nc3nnc(-c4ccco4)o3)c2c1 [Ia-89, N-[5-(2-furyl)-1,3,4-oxadiazol-2-yl]-6-(2-methoxyethoxy)-2-phenyl-4-quinolinecarboxamide] | > 100% |  | 
27 | O=C(Nc1nnc(-c2ccco2)o1)c1cc(-c2ccccc2)nc2ccc(OCc3ccccc3)cc12 [Ia-90, 6-benzyloxy-N-[5-(2-furyl)-1,3,4-oxadiazol-2-yl]-2-phenyl-4-quinolinecarboxamide] | > 100% |  | 
28 | CCCC(=O)Nc1ccc2nc(-c3ccccc3)cc(C(=O)Nc3nnc(-c4ccco4)o3)c2c1 [Ia-94, 6-butyrylamino-N-[5-(2-furyl)-1,3,4-oxadiazol-2-yl]-2-phenyl-4-quinolinecarboxamide] | 89% |  | 
29 | O=C(Nc1nnc(-c2ccccc2)o1)c1cc(-c2cccs2)nc2ccccc12 [Ia-j, N-(5-phenyl-1,3,4-oxadiazol-2-yl)-2-(2-thienyl)-4-quinolinecarboxamide] | 91% |  | 
30 | O=C(Nc1nnc(-c2ccco2)s1)c1cc(-c2ccccc2)nc2ccccc12 [Ib-4, N-[5-(2-furyl)-1,3,4-thiadiazol-2-yl]-2-phenyl-4-quinolinecarboxamide] | 58% |  | 
31 | COc1ccc(OC)c(-c2cc(C(=O)Nc3nnc(-c4ccncc4)s3)c3ccccc3n2)c1 [Ib-c, 2-(2,5-dimethoxyphenyl)-N-[5-(4-pyridyl)-1,3,4-thiadiazol-2-yl]-4-quinolinecarboxamide] | > 100% |  | 
32 | O=C(Nc1nnc(-c2ccncc2)s1)c1cc(-c2cccnc2)nc2ccc(Cl)cc12 [Ib-d, 6-chloro-2-(3-pyridyl)-N-[5-(4-pyridyl)-1,3,4-thiadiazol-2-yl]-4-quinolinecarboxamide] | 73% |  | 
33 | Cc1ccc(-c2cc(C(=O)Nc3nnc(-c4ccncc4)s3)c3ccccc3n2)o1 [Ib-e, 2-(5-methyl-2-furyl)-N-[5-(4-pyridyl)-1,3,4-thiadiazol-2-yl]-4-quinolinecarboxamide] | 85% |  | 
34 | Cc1cc(-c2cc(C(=O)Nc3nnc(-c4ccncc4)s3)c3cc(Cl)ccc3n2)c(C)s1 [Ib-f, 6-chloro-2-(2,5-dimethyl-3-thienyl)-N-[5-(4-pyridyl)-1,3,4-thiadiazol-2-yl]-4-quinolinecarboxamide] | 100% |  | 
35 | N-[(5-phenyl-1,3,4-oxadiazol-2-yl)methyl]-4-quinolinecarboxamide [Ia-10] |  |  | >100%
